Source: article PMC4289617 (Journal of medicinal chemistry, 2010)
Each block holds one compound with its values, some of them ahead of it. Peptide text beside a SMILES is read from it.

Target: WDR5 (Homo sapiens, UniProt P61964)
Assay: FP-based competitive binding assay
Settings: for binding to WDR5: up to the concentrations tested; for times increase in binding affinity upon N-terminal acetylation: acetylated vs free amino group peptide; for times less potent than Ac-3mer: compared to Ac-3mer (Ac-ARA-NH2)

times increase in binding affinity upon N-terminal acetylation: 1500
times more potent than Ac-ARA-NH2 (compared to Ac-ARA-NH2): 6
Compound: CC(=O)N[C@@H](C)C(=O)N[C@@H](CCCNC(=N)N)C(=O)N[C@H](C(N)=O)[C@@H](C)O [Ac-H3-3mer, Ac-ART-NH2] (Ac-Ala-Arg-Thr-NH2)

times increase in binding affinity upon N-terminal acetylation: > 10000
Compound: CC(=O)N[C@@H](C)C(=O)N[C@@H](CCCNC(=N)N)C(=O)N[C@H](C(=O)N[C@@H](CCCCN)C(=O)N[C@@H](CCC(N)=O)C(=O)N[C@H](C(=O)N[C@@H](C)C(=O)N[C@@H](CCCNC(=N)N)C(=O)N[C@@H](CCCCN)C(=O)N[C@@H](CO)C(N)=O)[C@@H](C)O)[C@@H](C)O [Ac-H3-10mer]

times less potent than Ac-3mer: 10
Compound: COC(=O)[C@H](C)NC(=O)[C@H](CCCNC(=N)N)NC(=O)[C@H](C)NC(C)=O [Δ2c, Ac-ARA-COOCH3] (Ac-Ala-Arg-Ala-OMe)

times more potent than the WIN peptide (Ki ratio vs WIN peptide): 50
Compound: CC(=O)N[C@@H](C)C(=O)N[C@@H](CCCNC(=N)N)C(=O)N[C@@H](C)C(=O)N[C@@H](CCC(=O)O)C(=O)N[C@H](C(=O)N[C@@H](Cc1c[nH]cn1)C(=O)N[C@@H](CC(C)C)C(=O)N[C@@H](CCCNC(=N)N)C(=O)N[C@@H](CCCCN)C(=O)N[C@@H](CO)C(N)=O)C(C)C [Ac-10mer]

Further lines, the compound ahead of its results:

Compound: C[C@H](N)C(=O)N[C@@H](CCCNC(=N)N)C(=O)N[C@@H](C)C(N)=O [H2N-3mer, H2N-ARA-NH2] (H-Ala-Arg-Ala-NH2)
binding to WDR5: does not bind to WDR5

Compound: Ac-ARTKQTA-NH2 [Ac-H3-7mer, Ac-ARTKQTA]
times increase in binding affinity upon N-terminal acetylation: > 10000

Compound: CC(=O)N[C@@H](C)C(=O)N[C@@H](CCCNC(=N)N)C(=O)N(C)[C@@H](C)C(N)=O [Δ1, Ac-AR-(N-Me)A-NH2]
binding to WDR5: complete loss of its binding to WDR5

Compound: CC(=O)N[C@@H](C)C(=O)N[C@@H](CCCNC(=N)N)C(=O)N[C@@H](C)C(=O)N(C)C [Δ2b, Ac-ARA-CONMe2] (Ac-Ala-Arg-Ala-NMe2)
times less potent than Ac-3mer: 50

Compound: Ac-ARAEVHL-NH2 (N-terminus and C-terminus assumed) [Ac-7mer]
fold decrease in binding affinity vs Ac-10mer (compared to Ac-10mer): 10
